Measured values published in US12459951B2, “Compounds that interact with RAS superfamily proteins for treatment of cancers, inflammatory diseases, rasopathies, and fibrotic disease” (SHY Therapeutics, LLC, priority 2022, dated 2025).

Experiments:
Assay in all cases: Cell-based caspase activation assay (western blot)
Design in all cases: species or system human
active/cleaved caspase 3 = test system: active/cleaved caspase 3
Description: (§1) Biological Example 4: Puma Expression and Caspases Activation Assay
(§2) Protocols for Cell-Based Puma Expression and Caspase Activation Assays
(§3) Cell lines: All human tumor-derived cancer cell lines were purchased from American Type Culture Collection. Human tumor-derived cancer cell lines Panc-1 (expressing KRas G12D mutant), MiaPaca-2 (expressing KRas G12C mutant), A549 (expressing KRas G12S mutant), and A375 (expressing wild type KRas) were grown in complete DMEM-High Glucose medium and NCI-H1975 (expressing wild type KRas), MM.1R (expressing wild type KRas) and IM.9 (expressing wild type KRas) were grown in RPMI1640 medium. Human tumor-derived cancer cell line BT-549 (expressing wild type KRas) was grown in RPMI1640 medium with 11.8U insulin. All mediums were supplemented with penicillin (100 U/mL), streptomycin (100 μg/mL), and 10% heat-inactivated FBS at 37° C. in a humidified incubator with 5% CO2.
(§4) Method: Cells were plated at 300,000 to 800,000 cells/well density in a 6-well plate in the presence of 10% FBS. The next day small molecules to be tested were added to the cells in the final concentration of 3 μM in the presence of 0.3% DMSO for 48 hours incubation at 37° C. For IC50 value determination, serial dilutions of compounds were added to cells under the same conditions. Following 48 hours of incubation cells were lysed with lysis buffer containing 1% Triton X-100, EDTA, and Halt™ Protease & Phosphatase Inhibitor Cocktail (Thermo Scientific). Protein concentration was assessed by BCA protein assay (Thermo Scientific). Increase expression of PUMA and active/cleaved forms of caspase 3, caspase 6 and caspase 9 were detected by western blot.
(§5) Western blot protocol: Equal amounts of protein (15-50 μg) were separated by SDS-PAGE and transferred to nitrocellulose membranes (Invitrogen by Thermo Fisher Scientific). The membrane was stained with Ponceau S Stain (Boston BioProducts) to verify uniform protein loading. Membranes were blocked with 10% milk and expression levels of PUMA was assessed by incubating overnight at 4° C. with the antibody PUMA (D30C10) from Cell Signaling Technology (#12450) and active/cleaved forms of caspase 3, caspase 6 and caspase 9 by incubating overnight at 4° C. with the following antibodies: cleaved caspase-3 (Asp175) (5A1E), cleaved caspase-6 (Asp162) and cleaved caspase-9 (Asp330) (D2D4) (all antibodies from Cell Signaling Technology). Then the membranes were incubated with HRP-conjugated secondary antibody (Jackson Immunoresearch, West Grove, PA). Bands were incubated in Amersham ECL Prime Western Blotting Detection Reagent (GE Healthcare) and visualized using the ChemiDoc MP imaging system (Bio-Rad).

active/cleaved caspase 6 = test system: active/cleaved caspase 6
Description: as §1, §2, §3, §4, §5

active/cleaved caspase 9 = test system: active/cleaved caspase 9
Description: as §1, §2, §3, §4, §5

COc1cc(Nc2nc(-c3nccn3C)nn3cc(-c4ccn(C(C)C)n4)c(C)c23)ncn1 [Compound 6, 6-(1-Isopropyl-1H-pyrazol-3-yl)-N-(6-methoxypyrimidin-4-yl)-5-methyl-2-(1-methyl-1H-imidazol-2-yl)pyrrolo[2,1-f][1,2,4]triazin-4-amine]
yes: Caspase 3 activation (active/cleaved caspase 3; A375, after 48 hours) | Caspase 3 activation (active/cleaved caspase 3; A549, after 48 hours) | Caspase 3 activation (active/cleaved caspase 3; BT-549, after 48 hours) | Caspase 3 activation (active/cleaved caspase 3; MiaPaca2, after 48 hours) | Caspase 3 activation (active/cleaved caspase 3; Panc-1, after 48 hours) | Caspase 6 activation (active/cleaved caspase 6; A375, after 48 hours) | Caspase 6 activation (active/cleaved caspase 6; A549, after 48 hours) | Caspase 6 activation (active/cleaved caspase 6; BT-549, after 48 hours) | Caspase 6 activation (active/cleaved caspase 6; MiaPaca2, after 48 hours) | Caspase 6 activation (active/cleaved caspase 6; Panc-1, after 48 hours) | Caspase 9 activation (active/cleaved caspase 9; A375, after 48 hours) | Caspase 9 activation (active/cleaved caspase 9; A549, after 48 hours) | Caspase 9 activation (active/cleaved caspase 9; BT-549, after 48 hours) | Caspase 9 activation (active/cleaved caspase 9; MiaPaca2, after 48 hours)

COc1ccnc(Nc2nc(-c3nccn3C)nn3cc(-c4ccn(C)n4)c(C)c23)c1 [Compound 102, N-(4-Methoxypyridin-2-yl)-5-methyl-2-(1-methyl-1H-imidazol-2-yl)-6-(1-methyl-1H-pyrazol-3-yl)pyrrolo[2,1-f][1,2,4]triazin-4-amine]
yes: Caspase 3 activation (active/cleaved caspase 3; A375, after 48 hours) | Caspase 3 activation (active/cleaved caspase 3; A549, after 48 hours) | Caspase 3 activation (active/cleaved caspase 3; IM.9, after 48 hours) | Caspase 3 activation (active/cleaved caspase 3; MM.1R, after 48 hours) | Caspase 3 activation (active/cleaved caspase 3; MiaPaca2, after 48 hours) | Caspase 3 activation (active/cleaved caspase 3; NCI-H1975, after 48 hours) | Caspase 6 activation (active/cleaved caspase 6; A375, after 48 hours) | Caspase 6 activation (active/cleaved caspase 6; A549, after 48 hours) | Caspase 6 activation (active/cleaved caspase 6; IM.9, after 48 hours) | Caspase 6 activation (active/cleaved caspase 6; MM.1R, after 48 hours) | Caspase 6 activation (active/cleaved caspase 6; MiaPaca2, after 48 hours) | Caspase 6 activation (active/cleaved caspase 6; NCI-H1975, after 48 hours) | Caspase 9 activation (active/cleaved caspase 9; A375, after 48 hours) | Caspase 9 activation (active/cleaved caspase 9; A549, after 48 hours) | Caspase 9 activation (active/cleaved caspase 9; IM.9, after 48 hours) | Caspase 9 activation (active/cleaved caspase 9; MM.1R, after 48 hours) | Caspase 9 activation (active/cleaved caspase 9; MiaPaca2, after 48 hours) | Caspase 9 activation (active/cleaved caspase 9; NCI-H1975, after 48 hours)

Cc1c(-c2ccn(C)n2)cn2nc(-c3nccn3C)nc(Nc3cc4n(n3)CCO4)c12 [Compound 124, N-(5-Methyl-2-(1-methyl-1H-imidazol-2-yl)-6-(1-methyl-1H-pyrazol-3-yl)pyrrolo[2,1-f][1,2,4]triazin-4-yl)-2,3-dihydropyrazolo[5,1-b]oxazol-6-amine]
yes: Caspase 3 activation (active/cleaved caspase 3; A375, after 48 hours) | Caspase 3 activation (active/cleaved caspase 3; BT-549, after 48 hours) | Caspase 3 activation (active/cleaved caspase 3; HCC1806, after 48 hours) | Caspase 3 activation (active/cleaved caspase 3; MiaPaca2, after 48 hours) | Caspase 3 activation (active/cleaved caspase 3; NCI-H358, after 48 hours) | Caspase 6 activation (active/cleaved caspase 6; A375, after 48 hours) | Caspase 6 activation (active/cleaved caspase 6; BT-549, after 48 hours) | Caspase 6 activation (active/cleaved caspase 6; HCC1806, after 48 hours) | Caspase 6 activation (active/cleaved caspase 6; MiaPaca2, after 48 hours) | Caspase 6 activation (active/cleaved caspase 6; NCI-H358, after 48 hours) | Caspase 9 activation (active/cleaved caspase 9; A375, after 48 hours) | Caspase 9 activation (active/cleaved caspase 9; BT-549, after 48 hours) | Caspase 9 activation (active/cleaved caspase 9; MiaPaca2, after 48 hours)
